Assay [1] concerns the target T1, Adenosine receptor A1 (Homo sapiens) (UniProt P30542).
T1 sequence (whole entry): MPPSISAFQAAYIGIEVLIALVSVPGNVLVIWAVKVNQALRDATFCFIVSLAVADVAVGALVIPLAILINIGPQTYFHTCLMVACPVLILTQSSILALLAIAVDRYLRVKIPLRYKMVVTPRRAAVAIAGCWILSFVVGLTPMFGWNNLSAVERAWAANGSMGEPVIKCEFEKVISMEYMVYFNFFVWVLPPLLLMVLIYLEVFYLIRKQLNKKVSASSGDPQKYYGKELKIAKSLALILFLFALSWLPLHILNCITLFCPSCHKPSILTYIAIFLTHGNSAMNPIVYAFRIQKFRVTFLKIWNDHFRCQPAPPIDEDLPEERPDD
The assay is described as follows: Positive allosteric enhancement of human cloned adenosine A1 receptor expressed in CHO cells assessed as inhibition of forskolin-induced cAMP accumulation at 10 uM using [3H]-cAMP by scintillation counting relative to control. It counts as functional, cell-based. Background: cAMP levels reflect the balance of adenylyl cyclase and phosphodiesterase activity.

In assay [2] the target is T1, Adenosine receptor A1 (Homo sapiens). The assay is described as follows: Positive allosteric enhancement of human cloned adenosine A1 receptor expressed in CHO cells assessed as inhibition of forskolin-induced cAMP accumulation at 100 nM using [3H]-cAMP by scintillation counting relative to control in presence of 1 pM of CCPA. It counts as functional, cell-based.
Assay [3] shares this target. The assay can be described thus: Ratio of PD81723 to compound for positive allosteric enhancement of human cloned adenosine A1 receptor expressed in CHO cells assessed as inhibition of forskolin-induced cAMP accumulation at 10 uM using [3H]-cAMP by scintillation counting. It counts as functional, cell-based.
The target is the same in assay [4]. The assay is described as follows: Displacement of [3H]DPCPX from human adenosine A1 receptor expressed in CHO cells at 10 uM after 120 mins by scintillation counting. It counts as cell-based. (In general: Displacement assays read how much labelled ligand stays bound in the presence of the test substance.)
A short description of assay [5]: Displacement of [3H]-ZM241385 from human adenosine A2 receptor expressed in CHO cells at 10 uM after 120 mins by scintillation counting. It counts as cell-based.
Assay [6] has as its target T2, Adenosine receptor A3 (Homo sapiens) (UniProt P0DMS8).
T2 sequence (whole entry): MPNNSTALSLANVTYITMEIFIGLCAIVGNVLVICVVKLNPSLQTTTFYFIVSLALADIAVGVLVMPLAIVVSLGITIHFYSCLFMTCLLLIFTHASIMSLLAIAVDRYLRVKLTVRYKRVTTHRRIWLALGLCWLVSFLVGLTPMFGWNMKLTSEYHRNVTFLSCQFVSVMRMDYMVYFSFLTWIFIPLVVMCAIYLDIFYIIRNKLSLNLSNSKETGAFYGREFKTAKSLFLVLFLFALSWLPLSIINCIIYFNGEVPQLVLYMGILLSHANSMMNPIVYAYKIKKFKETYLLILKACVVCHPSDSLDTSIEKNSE
The assay can be described thus: Displacement of [3H]-MRE-3008-F20 from human adenosine A3 receptor expressed in CHO cells at 10 uM after 120 mins by scintillation counting. The format is cell-based.

For assay [7], the target named is T1, Adenosine receptor A1 (Homo sapiens). The assay can be described thus: Binding affinity to human adenosine A1 receptor expressed in CHO cells assessed as fold Bmax shift of [3H]-CCPA at 10 uM after 90 mins by [3H]-CCPA binding assay relative to control. It counts as cell-based.
Assay [8] has the same target. The assay is described as follows: Binding affinity to human adenosine A1 receptor expressed in CHO cells assessed as fold Ki shift of CCPA at 10 uM after 90 mins by [3H]-CCPA displacement assay relative to control. It counts as cell-based.
Assay [9] shares this target. The assay is described as follows: Effect on association binding rate constant of [3H]-NECA to human adenosine A1 receptor expressed in CHO cells at 1 uM after 45 mins by scintillation spectrometry analysis. The format is cell-based.
Assay [10] has the same target. The assay can be described thus: Effect on dissociation binding rate constant of [3H]-NECA to human adenosine A1 receptor expressed in CHO cells at 1 uM after 45 mins by scintillation spectrometry analysis relative to control. It counts as cell-based.
The target is the same in assay [11]. The assay can be described thus: Increase of [3H]-NECA affinity to human adenosine A1 receptor expressed in CHO cells at 1 uM after 45 mins by scintillation spectrometry analysis relative to control. The format is cell-based.
The subject of assay [12] is Mus musculus. The assay is described as follows: Antinociceptive effect in CD1 mouse assessed as inhibition of formalin-induced pain behavior in paw at 0.3 mg/kg, ip administered 15 mins before formalin challenge measured up to 45 mins relative to control. It counts as functional.
Assay [13] deals with Mus musculus. The assay can be described thus: Antinociceptive effect in CD1 mouse assessed as inhibition of formalin-induced pain behavior in paw at 3 mg/kg, ip administered 15 mins before formalin challenge measured up to 45 mins relative to control. The format is functional.

Calls of active or inactive are those of the source. The rule behind the calls is not given here. A value given as a limit tells only on which side of the number the result lay.

We go through 2 molecules from ChEMBL document CHEMBL3612058, “Synthesis and biological evaluation of a new series of 2-amino-3-aroyl thiophene derivatives as agonist allosteric modulators of the A1 adenosine receptor. A position-dependent effect study” (Eur J Med Chem, 2015).

The inhibition is the share of the control response that was lost under treatment. A word on the inhibition in vivo: it is how much of the control response was suppressed.

With `Nc1sc(-c2ccc(Cl)cc2)c(Cc2ccc(Cl)cc2)c1C(=O)c1ccc(Cl)cc1`, the inhibition in assay [1] was 81%; in [2], 84%; in [4], under 10%; in assay [5], under 10%; in assay [6] it was under 10%. Moreover, in assay [3], the Ratio amounted to 3. Also, the fold change (FC) in [7] turned out to be 11; in assay [8] it was 11.7; in assay [10], 2.5; in [11], 2.3. The result in assay [9] was inactive. In addition, the inhibition in vivo at 0.3 mg/kg with Mus musculus [12] worked out at 49%. Further, the inhibition in vivo at 3 mg/kg in the assay with Mus musculus [13] was 82%.
As to `Cc1sc(N)c(C(=O)c2cccc(C(F)(F)F)c2)c1C`, the inhibition was 21% in [2], under 10% in assay [4], under 10% in [5] and under 10% in [6]. Besides, the figures for the fold change (FC) in [7] and in [8] were 1.3 and 1.4, respectively. Also, the outcome in assay [9], in assay [10] and in [11] was inactive.
